This test deals with Staphylococcus aureus IFO 12732. The test is classed as cell-based. Conditions: for Antimicrobial Activities (MIC) S. aureus (24 hours later): 37° C., turbidity 24 hours later, diluents approximately 50 μM to approximately 0.39 μM, approximately 1×10^6 cells/mL. The method, then:
Regarding the antimicrobial peptide in each of samples 1 to 14, the antimicrobial activities (minimum inhibitory concentration: MIC) with respect to gram-positive bacteria (Staphylococcus aureus IFO 12732) were determined, as described below, by a liquid medium dilution technique using a 96-well microplate. Staphylococcus aureus bacteria are inoculated from a preservation medium to an agar plate medium (“Muller Hinton Agar” manufactured by DIFCO), and thereafter stationary cultured for 18 hours at 37° C. Cultured bacteria were scratched twice using a disposable loop, and gathered bacteria were suspended in 5 mL of physiological saline. The OD660 value of the bacterial suspension derived from diluting the suspension 10 times with physiological saline was determined. The bacterial suspension used in the following tests was prepared by utilizing physiological saline, such that its OD660 value was 0.1 (therefore, bacteria concentration: approximately 2×10^7 cells/mL).
Each peptide sample derived by the above-described method was dissolved with sterile distilled water, which served as a carrier in the present example, to prepare a drug of predetermined concentration. More specifically, an appropriate amount of peptide sample were added into an Eppendorf (registered trademark) tube with an appropriate capacity, and such peptide sample were dissolved with sterile distilled water to prepare 2 mM of drug (peptide solution). The derived drug was appropriately diluted, and each diluent of approximately 50 μM to approximately 0.39 μM was prepared. Thereafter, each diluent was respectively introduced into the well of a polystyrene 96-round-bottom-well microplate prepared in advance. Next, 5 μL of the bacterial suspension having 0.1 OD660 was added (test bacteria quantity: approximately 1×10^6 cells/mL) respectively to each well containing the diluent of each concentration. The microplate was then incubated in an incubator at 37° C., and the presence of bacteria was evaluated based on the turbidity 24 hours later. The minimum drug concentration (peptide concentration), in which an increased in turbidity caused by bacteria was not detected at the time of measurement, was defined as MIC (unit: μM) in the present example.

14 compounds from US7615534B2, “Antimicrobial peptides and use thereof” (Toagosei Co., Ltd, priority 2005, dated 2009) can be followed below.

Where no end group is shown, it is not given here.

For `CC[C@H](C)[C@H](NC(=O)[C@H](CC(C)C)NC(=O)[C@H](CCCNC(=N)N)NC(=O)[C@@H](N)C(C)C)C(=O)N[C@@H](CCCCN)C(=O)N[C@@H](CC(C)C)C(=O)N[C@@H](CC(C)C)C(=O)N[C@@H](Cc1ccc(O)cc1)C(=O)N[C@@H](CCC(N)=O)C(N)=O` [Sample 1, VRLLKLLYQ], the “Antimicrobial Activities (MIC) S. aureus (24 hours later)” value (shortened to “Antimicrobial Activities”) stood at 50 µM.
Consider `CC[C@H](C)[C@H](NC(=O)[C@H](CC(C)C)NC(=O)[C@H](CCCNC(=N)N)NC(=O)[C@@H](NC(=O)[C@@H](NC(=O)[C@H](CCCNC(=N)N)NC(=O)[C@@H](NC(=O)[C@H](CC(C)C)NC(=O)[C@H](CCC(=O)O)NC(=O)[C@@H](N)CCC(=O)O)[C@@H](C)CC)[C@@H](C)O)C(C)C)C(=O)N[C@@H](CCCCN)C(=O)N[C@@H](CC(C)C)C(=O)N[C@@H](CC(C)C)C(=O)N[C@@H](Cc1ccc(O)cc1)C(=O)N[C@@H](CCC(N)=O)C(N)=O` [Sample 10, EELIRTVRLIKLLYQ], for which the “Antimicrobial Activities” value came to 25 µM.
For the compound “EDLLKAVRLIKFLYQ-NH2 [Sample 9, EDLLKAVRLIKFLYQ]”, the “Antimicrobial Activities” value was 25 µM.
Still for that read-out and setting: the figure for “EDLLRTVRLIKVLYQ-NH2 [Sample 13, EDLLRTVRLIKVLYQ]” is 50 µM; for “EELLKAVRLIKLLYQ-NH2 [Sample 8, EELLKAVRLIKLLYQ]” it is 25 µM; for “ENLLKAIRLIKFLYQ-NH2 [Sample 14, ENLLKAIRLIKFLYQ]” it is 6.25 µM.
Still for that read-out and setting: the figure for IRLIKFLYQ-NH2 [Sample 5, IRLIKFLYQ] is 25 µM.
As to “KTKEGVKT (KTKEGVKT-NH2) [Comparative Sample 1, reference compound]”, the “Antimicrobial Activities” value is recorded as “No Activity”. The “antimicrobial activity (in words)” value (summary of Table 2) is reported as “no antimicrobial activity was detected”.
Turning to “RELLTAVRIIKILYQ-NH2 [Sample 12, RELLTAVRIIKILYQ]”, the “Antimicrobial Activities” value amounted to 25 µM.
For the compound RLIKLLYQ-NH2 [Sample 6, RLIKLLYQ], the “Antimicrobial Activities” value was determined as 25 µM.
Still for that read-out and setting: the value for “RLIKLLYQRLIKLLYQ-NH2 [Sample 7, RLIKLLYQ RLIKLLYQ]” was 6.25 µM.
For the compound “RRAAQAVRLIKLLYQ-NH2 [Sample 11, RRAAQAVRLIKLLYQ]”, the “Antimicrobial Activities” value came out at 6.25 µM.
With VRFIKFLYQ-NH2 [Sample 3, VRFIKFLYQ], the “Antimicrobial Activities” value is 25 µM.
Same read-out and setting: the figure for VRLIKFLYQ-NH2 [Sample 2, VRLIKFLYQ] is 12.5 µM.
